Laboratory results taken from patent publication US20260285850A1, “SUBSTITUTED OXAZOLIDINONES AND IMIDAZOLINONES AS HERBICIDES” (FMC CORPORATION, priority 2023, published 2026).

Assays:
Format in all cases: in vivo
[1] = test system: barnyardgrass (Echinochloa crus-galli); assay: Test A preemergence soil spray, visual injury rating 0-100; conditions: 10 days
In short: (§1)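 Seeds sown in loam-sand blend got a preemergence directed soil spray, or emerged plants (2-10 cm, one- to two-leaf) got a postemergence spray, of compound in non-phytotoxic solvent with surfactant. After 10 days in greenhouse, injury rated visually versus untreated controls on a 0 (no effect) to 100 (complete control) scale.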

[2] = test system: blackgrass (Alopecurus myosuroides); assay: as above; conditions: 10 days
In short: as §1

[3] = test system: corn (Zea mays); assay: as above; conditions: 10 days
In short: as §1

[4] = test system: green foxtail (Setaria viridis); assay: as above; conditions: 10 days
In short: as §1

[5] = test system: kochia (Bassia scoparia); assay: as above; conditions: 10 days
In short: as §1

[6] = test system: oat, wild (wild oat, Avena fatua); assay: as above; conditions: 10 days
In short: as §1

[7] = test system: palmer (palmer amaranth, palmer pigweed, Amaranthus palmeri); assay: as above; conditions: 10 days
In short: as §1

[8] = test system: ragweed (common ragweed, Ambrosia artemisiifolia); assay: as above; conditions: 10 days
In short: as §1

[9] = test system: ryegrass, Italian (italian ryegrass, Lolium multiflorum); assay: as above; conditions: 10 days
In short: as §1

[10] = test system: soybean (Glycine max); assay: as above; conditions: 10 days
In short: as §1

[11] = test system: wheat (Triticum aestivum); assay: as above; conditions: 10 days
In short: as §1

[12] = test system: barnyardgrass (Echinochloa crus-galli); assay: Test A postemergence application, visual injury rating 0-100
In short: as §1

[13] = test system: blackgrass (Alopecurus myosuroides); assay: as above
In short: as §1

[14] = test system: corn (Zea mays); assay: as above
In short: as §1

[15] = test system: galium (catchweed bedstraw, Galium aparine); assay: as above
In short: as §1

[16] = test system: green foxtail (Setaria viridis); assay: as above
In short: as §1

[17] = test system: horseweed (Erigeron canadensis); assay: as above
In short: as §1

[18] = test system: kochia (Bassia scoparia); assay: as above
In short: as §1

[19] = test system: oat, wild (wild oat, Avena fatua); assay: as above
In short: as §1

[20] = test system: palmer (palmer amaranth, palmer pigweed, Amaranthus palmeri); assay: as above
In short: as §1

[21] = test system: ragweed (common ragweed, Ambrosia artemisiifolia); assay: as above
In short: as §1

[22] = test system: ryegrass, Italian (italian ryegrass, Lolium multiflorum); assay: as above
In short: as §1

[23] = test system: soybean (Glycine max); assay: as above
In short: as §1

[24] = test system: wheat (Triticum aestivum); assay: as above
In short: as §1

[25] = test system: barnyardgrass (Echinochloa crusgalli); assay: Test B flooded paddy test, visual plant response rating 0-100; conditions: 250 g ai/ha, Flood, applied to paddy water, evaluated after 13 days
In short: (§2)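 Plants were grown to the 2-leaf stage, then pots were flooded to 3 cm above the soil and test compounds were applied directly into the paddy water. Water depth was held there throughout; after 13 days in a greenhouse, injury was scored visually against untreated controls.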

[26] = test system: ducksalad (Heteranthera limosa); assay: as above; conditions: 250 g ai/ha, Flood, applied to paddy water, evaluated after 13 days
In short: as §2

[27] = test system: rice (Oryza sativa); assay: as above; conditions: 250 g ai/ha, Flood, applied to paddy water, evaluated after 13 days
In short: as §2

[28] = test system: sedge, umbrella (small-flower umbrella sedge, Cyperus difformis); assay: as above; conditions: 250 g ai/ha, Flood, applied to paddy water, evaluated after 13 days
In short: as §2

[29] = 62 g ai/ha, 0 = no effect, 100 = complete control
[30] = 62 g ai/ha, postemergence, 10 days, 0 = no effect, 100 = complete control
[31] = Postemergence, 16 g ai/ha, greenhouse 10 days, 0 no effect, 100 complete control

SMILES: CC1(C(=O)NC2CC=C(C(=O)OCC(F)(F)F)C2)CN(c2cc(Cl)cc(Cl)c2)C(=O)O1 (stereo not shown) [Compound 96]
- Barnyardgrass plant response rating ([1]; 16 g ai/ha, 0 to 100 scale): 10
- Barnyardgrass plant response rating (0-100) [1, 29]: 60
- Blackgrass plant response rating ([2]; 16 g ai/ha, 0 to 100 scale): 0
- Blackgrass plant response rating (0-100) [2, 29]: 0
- Corn plant response rating ([3]; 16 g ai/ha, 0 to 100 scale): 0
- Corn plant response rating (0-100) [3, 29]: 40
- Foxtail, Green plant response rating ([4]; 16 g ai/ha, 0 to 100 scale): 10
- Foxtail, Green plant response rating (0-100) [4, 29]: 90
- Kochia plant response rating ([5]; 16 g ai/ha, 0 to 100 scale): 0
- Kochia plant response rating (0-100) [5, 29]: 0
- Oat, Wild plant response rating ([6]; 16 g ai/ha, 0 to 100 scale): 0
- Oat, Wild plant response rating (0-100) [6, 29]: 20
- Pigweed, Palmer plant response rating ([7]; 16 g ai/ha, 0 to 100 scale): 100
- Pigweed, Palmer plant response rating (0-100) [7, 29]: 90
- Ragweed plant response rating ([8]; 16 g ai/ha, 0 to 100 scale): 0
- Ragweed plant response rating (0-100) [8, 29]: 0
- Ryegrass, Italian plant response rating ([9]; 16 g ai/ha, 0 to 100 scale): 20
- Ryegrass, Italian plant response rating (0-100) [9, 29]: 60
- Soybean plant response rating ([10]; 16 g ai/ha, 0 to 100 scale): 10
- Soybean plant response rating (0-100) [10, 29]: 30
- Wheat plant response rating ([11]; 16 g ai/ha, 0 to 100 scale): 0
- Wheat plant response rating (0-100) [11, 29]: 0
- Barnyardgrass plant response rating (0-100) [12, 30]: 100
- Barnyardgrass plant response rating (0 to 100 scale) [12, 31]: 100
- Blackgrass plant response rating (0-100) [13, 30]: 90
- Blackgrass plant response rating (0 to 100 scale) [13, 31]: 80
- Corn plant response rating (0-100) [14, 30]: 100
- Corn plant response rating (0 to 100 scale) [14, 31]: 100
- Galium plant response rating (0-100) [15, 30]: 90
- Galium plant response rating (0 to 100 scale) [15, 31]: 70
- Foxtail, Green plant response rating (0-100) [16, 30]: 90
- Foxtail, Green plant response rating (0 to 100 scale) [16, 31]: 90
- Horseweed plant response rating (0-100) [17, 30]: 70
- Horseweed plant response rating (0 to 100 scale) [17, 31]: 40
- Kochia plant response rating (0-100) [18, 30]: 80
- Kochia plant response rating (0 to 100 scale) [18, 31]: 70
- Oat, Wild plant response rating (0-100) [19, 30]: 80
- Oat, Wild plant response rating (0 to 100 scale) [19, 31]: 50
- Pigweed, Palmer plant response rating (0-100) [20, 30]: 90
- Pigweed, Palmer plant response rating (0 to 100 scale) [20, 31]: 70
- Ragweed plant response rating (0-100) [21, 30]: 60
- Ragweed plant response rating (0 to 100 scale) [21, 31]: 40
- Ryegrass, Italian plant response rating (0-100) [22, 30]: 90
- Ryegrass, Italian plant response rating (0 to 100 scale) [22, 31]: 80
- Soybean plant response rating (0-100) [23, 30]: 80
- Soybean plant response rating (0 to 100 scale) [23, 31]: 80
- Wheat plant response rating (0-100) [24, 30]: 90
- Wheat plant response rating (0 to 100 scale) [24, 31]: 30
- Plant response rating, Barnyardgrass (0 to 100 scale, 0 is no effect and 100 is complete control) [25]: 95
- Plant response rating, Ducksalad (0 to 100 scale, 0 is no effect and 100 is complete control) [26]: 70
- Plant response rating, Rice (0 to 100 scale, 0 is no effect and 100 is complete control) [27]: 25
- Plant response rating, Sedge, Umbrella (0 to 100 scale, 0 is no effect and 100 is complete control) [28]: 95
